This is an account of results in ChEMBL document CHEMBL5335807, “Rational design, synthesis and biological evaluation of novel HIV-1 protease inhibitors containing 2-phenylacetamide derivatives as P2 ligands with potent activity against DRV-Resistant HIV-1 variants” (Bioorg Med Chem Lett, 2024).

pEC50, pIC50: −log10 of the molar value.

The target of experiment [1] is Human immunodeficiency virus type 1 protease (Human immunodeficiency virus 1, UniProt Q72874). Put plainly: Inhibition of HIV-1 protease by fluorescence resonance energy transfer analysis.
A short description of experiment [2]: Resistance index, ratio of EC50 for antiviral activity against DRV-resistant HIV-1 to EC50 for antiviral activity against wild type HIV-1 NL4-3. The format is functional, Human immunodeficiency virus 1.
Experiment [3] has as its system Human immunodeficiency virus 1. Put plainly: Antiviral activity against HIV-1 NL4-3 assessed as inhibition of viral growth. The format is functional, organism-based. The conditions noted are these: Human immunodeficiency virus 1, NL4-3.
Experiment [4] concerns Human immunodeficiency virus 1. The experiment is described as follows: Antiviral activity against DRV-resistant HIV-1 assessed as inhibition of viral growth by single-round infection assay. The format is functional, organism-based. The conditions noted are these: Human immunodeficiency virus 1, DRV.

By pIC50 is commonly meant the IC50 on a negative log10 scale, so that one unit is a factor of ten. High values mean a low IC50, low ones a high IC50. Consider `CSc1ccc(S(=O)(=O)N(CC(C)C)C[C@@H](O)[C@H](Cc2ccccc2)NC(=O)Cc2ccc(O)c(O)c2)cc1`, for which the pIC50 in experiment [1] is 8.64. Still for that read-out and setting: the figure for `COc1ccc(CC(=O)N[C@@H](Cc2ccccc2)[C@H](O)CN(CC(C)C)S(=O)(=O)c2ccc(N)cc2)cc1` is 6.42; for `COc1ccc(S(=O)(=O)N(CC(C)C)C[C@@H](O)[C@H](Cc2ccccc2)NC(=O)Cc2cccc(OC)c2)cc1` it is 8.16.

The term pEC50 denotes −log10 of the EC50, conventionally taken in molar units. Regarding `COc1ccc(S(=O)(=O)N(CC(C)C)C[C@@H](O)[C@H](Cc2ccccc2)NC(=O)Cc2ccc(O)c(O)c2)cc1`, the “Ratio EC50” value in experiment [2] amounted to 12.5. Moreover, the pIC50 in experiment [1] is 9.27. The pEC50 in experiment [3] is 5.73; in experiment [4] it was 4.63.

In experiment [1], `COc1ccc(CC(=O)N[C@@H](Cc2ccccc2)[C@H](O)CN(CC(C)C)S(=O)(=O)c2ccc(SC)cc2)cc1OC` showed a negative-log IC50 (pIC50) of 6.77.

Take `COc1ccc(S(=O)(=O)N(CC(C)C)C[C@@H](O)[C@H](Cc2ccccc2)NC(=O)Cc2ccc(OC)c(O)c2)cn1`: the pIC50 in experiment [1] was 7.89.

Regarding `COc1cccc(CC(=O)N[C@@H](Cc2ccccc2)[C@H](O)CN(CC(C)C)S(=O)(=O)c2ccc(N)cc2)c1`, in experiment [1], the pIC50 is 7.45. `CC(C)CN(C[C@@H](O)[C@H](Cc1ccccc1)NC(=O)Cc1ccc(O)c(O)c1)S(=O)(=O)c1ccc(N)cc1` gave a negative-log IC50 (pIC50) in experiment [1] of 8.02. Same read-out and setting: to `COc1ccc(S(=O)(=O)N(CC(C)C)C[C@@H](O)[C@H](Cc2ccccc2)NC(=O)Cc2ccc(O)cc2)cc1` belongs 8.65; to `COc1ccc(CC(=O)N[C@@H](Cc2ccccc2)[C@H](O)CN(CC(C)C)S(=O)(=O)c2ccc(OC)cc2)cc1`, 7.68. The same measure, in the same setting: to `CC(C)CN(C[C@@H](O)[C@H](Cc1ccccc1)NC(=O)Cc1ccc(O)cc1)S(=O)(=O)c1ccc(N)cc1` belongs 7.49; to `COc1ccc(S(=O)(=O)N(CC(C)C)C[C@@H](O)[C@H](Cc2ccccc2)NC(=O)Cc2ccc(O)c(O)c2)cn1`, 8.54. In turn, `COc1ccc(CC(=O)N[C@@H](Cc2ccccc2)[C@H](O)CN(CC(C)C)S(=O)(=O)c2ccc(SC)cc2)cc1O` gave a pIC50 in experiment [1] of 8.03. `COc1ccc(S(=O)(=O)N(CC(C)C)C[C@@H](O)[C@H](Cc2ccccc2)NC(=O)Cc2ccc(O)c(OC)c2)cc1` showed a pIC50 in experiment [1] of 7.30.

With `CSc1ccc(S(=O)(=O)N(CC(C)C)C[C@@H](O)[C@H](Cc2ccccc2)NC(=O)Cc2cccc(O)c2)cc1`, the “Ratio EC50” value in experiment [2] stood at 2.51. The molecule also showed a pIC50 in experiment [1] of 8.66. The values for the pEC50 in experiment [3] and in experiment [4] were 6.03 and 5.63, respectively. `COc1ccc(S(=O)(=O)N(CC(C)C)C[C@@H](O)[C@H](Cc2ccccc2)NC(=O)Cc2ccc(OC)c(OC)c2)cc1`: the pIC50 in experiment [1] was 7.07.

As to `CSc1ccc(S(=O)(=O)N(CC(C)C)C[C@@H](O)[C@H](Cc2ccccc2)NC(=O)Cc2ccc(O)cc2)cc1`, in experiment [1], the pIC50 is 8.38. The same measure, in the same setting: to `COc1cccc(CC(=O)N[C@@H](Cc2ccccc2)[C@H](O)CN(CC(C)C)S(=O)(=O)c2ccc(OC)nc2)c1` belongs 7.90.

In experiment [1], `COc1cccc(CC(=O)N[C@@H](Cc2ccccc2)[C@H](O)CN(CC(C)C)S(=O)(=O)c2ccc(SC)cc2)c1` gave a pIC50 of 7.52. On the same count and under the same terms, the figure for `CC(C)CN(C[C@@H](O)[C@H](Cc1ccccc1)NC(=O)Cc1cccc(O)c1)S(=O)(=O)c1ccc(N)cc1` is 8.26; for `COc1ccc(S(=O)(=O)N(CC(C)C)C[C@@H](O)[C@H](Cc2ccccc2)NC(=O)Cc2ccc(O)cc2)cn1` it is 8.14; for `COc1ccc(CC(=O)N[C@@H](Cc2ccccc2)[C@H](O)CN(CC(C)C)S(=O)(=O)c2ccc(N)cc2)cc1OC` it is 5.99. In turn, `COc1ccc(S(=O)(=O)N(CC(C)C)C[C@@H](O)[C@H](Cc2ccccc2)NC(=O)Cc2ccc(OC)c(O)c2)cc1` showed a pIC50 in experiment [1] of 8.40.

For `COc1ccc(CC(=O)N[C@@H](Cc2ccccc2)[C@H](O)CN(CC(C)C)S(=O)(=O)c2ccc(N)cc2)cc1O`, the pIC50 in experiment [1] is 7.56.

For the molecule `COc1ccc(S(=O)(=O)N(CC(C)C)C[C@@H](O)[C@H](Cc2ccccc2)NC(=O)Cc2ccc(OC)c(OC)c2)cn1`, in experiment [1], the pIC50 is 6.75. `COc1ccc(S(=O)(=O)N(CC(C)C)C[C@@H](O)[C@H](Cc2ccccc2)NC(=O)Cc2cccc(O)c2)cc1`: the “Ratio EC50” value in experiment [2] worked out at 8.43. This molecule also had a negative logarithm of the IC50 (pIC50) in experiment [1] of 9.06. Besides, the pEC50 is 5.98 in experiment [3] and 5.05 in experiment [4].

As to `COc1ccc(S(=O)(=O)N(CC(C)C)C[C@@H](O)[C@H](Cc2ccccc2)NC(=O)Cc2cccc(O)c2)cn1`, the “Ratio EC50” value in experiment [2] is 5.26. Also, the pIC50 in experiment [1] was 8.92. The results for the pEC50 in experiment [3] and in experiment [4] were 6.02 and 5.30, respectively. Regarding `COc1ccc(S(=O)(=O)N(CC(C)C)C[C@@H](O)[C@H](Cc2ccccc2)NC(=O)Cc2ccc(O)c(OC)c2)cn1`, in experiment [1], the pIC50 is 6.77. In experiment [1], `COc1cc(CC(=O)N[C@@H](Cc2ccccc2)[C@H](O)CN(CC(C)C)S(=O)(=O)c2ccc(N)cc2)ccc1O` had a pIC50 of 6.42. Same read-out and setting: the figure for `COc1ccc(CC(=O)N[C@@H](Cc2ccccc2)[C@H](O)CN(CC(C)C)S(=O)(=O)c2ccc(OC)nc2)cc1` is 7.29; for `COc1cc(CC(=O)N[C@@H](Cc2ccccc2)[C@H](O)CN(CC(C)C)S(=O)(=O)c2ccc(SC)cc2)ccc1O` it is 6.94. Same read-out and setting: the figure for `COc1ccc(CC(=O)N[C@@H](Cc2ccccc2)[C@H](O)CN(CC(C)C)S(=O)(=O)c2ccc(SC)cc2)cc1` is 7.07.
